Results taken from patent publication US20260226037A1, “MICROTUBULE TARGETING AGENTS” (ARIEL SCIENTIFIC INNOVATIONS LTD., priority 2022, published 2026).
“Also recorded” adds a separate entry of the source.

How the values were obtained:
RPMI-MR20 cells = assay: XTT cytotoxicity, RPMI-MR20; type: cell-based
Method in brief: (§1)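 Tumor cell panel; XTT readout of cell viability.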

MM1.S cells = assay: XTT cytotoxicity, MM1.S; type: cell-based; conditions: Homo sapiens, multiple myeloma, non-resistant, read-out: IC50
Method in brief: as §1

N6/ADR cells = assay: XTT cytotoxicity, N6/ADR; type: cell-based
A2780 cells = assay: XTT cytotoxicity, A2780; type: cell-based; conditions: Homo sapiens; A2780, ovarian carcinoma, non-resistant
Description: (§2) The cytotoxic activity of the novel family was evaluated against various tumor cells, including myeloma cells, acute lymphoblastic leukemia cells, acute monocytic leukemia cells, chronic myelogenous leukemia cells, pancreatic cancer cells, breast cancer cells, uterine sarcoma cells, cervix adenocarcinoma cells, ovary cancer cells, melanoma cells, osteosarcoma cells, prostate cancer cells, lung cancer cells, neuroblastoma cells and colorectal adenocarcinoma cells by XTT assay.

HUVEC cells [1] = assay: Disruption of pre-formed HUVEC capillary-like tubes; type: cell-based, human; conditions: tubes formed 4 hours, then 2 hours exposure
Description: The analysis of the anti-vascular effect was performed by seeding HUVEC cells on Matrigel matrix, and incubated them until formation of capillary-like tubes, reminiscent of newly formed vessels after 4 hours.

MES-SA cells = assay: XTT cytotoxicity, MES-SA; type: cell-based; conditions: Homo sapiens, poorly differentiated uterine sarcoma, non-resistant
Method in brief: as §1

[2] = test system: different cancer cell lines; assay: XTT cytotoxicity, various tumor cells; type: cell-based; conditions: XTT assay
Description: as §2

RPMI8226 myeloma cells = assay: Xenograft murine myeloma model, antitumor efficacy; type: in vivo, mice
Description: In vivo anti-cancer efficacy of the molecules was evaluated in a xenograft murine myeloma model. Male SCID mice (6-8 weeks old) were maintained in accordance with Institutional Animal Care Use Committee guidelines. Mice were housed in the Animal Research Facility of Ariel University and experiments were performed in accordance with approved protocols. […] Mice were sacrificed when mean tumor volume of vehicle treated group reached 1500 mm3, or mice appeared moribund to prevent unnecessary morbidity. Mean tumor volume represents the average of tumor volume in each treatment group during the experiment. The weight of the tumors was measured at the end of the experiment and expressed as mean tumor weight per group. Body weight is expressed as mean body mice weight per group. The individual relative tumor volume (RTV) was defined as Vx/V1, where Vx is the mean tumor volume in mm3 at a given time and V1 at the start of treatment. Relative tumor volume is determined by calculating RTV (%) (mean RTV of treated group)/(mean RTV of control group)). Relative tumor volume inhibition is determined by calculating RTVI (%) (1-RTV %)

HUVEC cells [3] = assay: HUVEC wound scratch-healing migration assay; type: cell-based, human
From the text: During angiogenesis, endothelial cells proliferate and migrate chemotactically towards angiogenic signals secreted by tumor cells.

RPMI-DOX40 cells = assay: XTT cytotoxicity, RPMI-DOX40; type: cell-based
Method in brief: as §1

MCF7-VP cells = assay: XTT cytotoxicity, MCF7-VP; type: cell-based
Method in brief: as §1

[4] = test system: colchicine binding site on tubulin protein; assay: EBI competition assay, NALM6 cells; type: cell-based
A2780ADR cells = assay: XTT cytotoxicity, A2780ADR; type: cell-based
Description: as §2

[5] = Water solubility (microscope images); type: physicochemical; conditions: compared with benzene, furan, thiophene, thiazole or pyridine analogues
From the text: Solubility of the synthesized molecules was compared to equivalent molecules having a benzene, furan, thiophene, thiazole or pyridine group instead of oxazole group (Table 2).

NCI-H69 VCR/R cells = assay: XTT cytotoxicity, NCI-H69 VCR/R; type: cell-based
Description: as §2

HUVEC cells [6] = assay: HUVEC tube formation on Matrigel; type: cell-based, human
Description: Endothelial cells seeded on Matrigel are able to form three-dimensional capillary structures with a lumen resembling the first angiogenesis steps.
The analysis of anti-angiogenic effect was performed by exposing HUVEC cells to the compounds and seeding them on Matrigel matrix for 4 hours. During this time, control group formed an extensive network lumen-like structure as compared to partially disorganized cells treated with lower doses of SMS077 and SMS182 and disorganized and rounded cells treated with higher doses of the molecules.

NALM6 cells = assay: XTT cytotoxicity, NALM6; type: cell-based; conditions: Homo sapiens, NALM-6; NALM6, acute lymphoblastic leukemia, non-resistant; read-out: IC50
MCF7 cells = assay: XTT cytotoxicity, MCF7; type: cell-based; conditions: Homo sapiens; MCF7, breast adenocarcinoma, non-resistant
Method in brief: as §1

[7] = test system: MESA/SA and MES-SA/DX5, NALM6 and NALM6/ADR, RPMI8226 and RPMI-DO40 cells; assay: Annexin / propidium iodide staining (apoptosis, necrosis); type: cell-based; conditions: 72 hours, graded concentrations
[8] = test system: colchicine binding site on tubulin protein; assay: EBI competition assay, RPMI-8226 cells; type: cell-based; conditions: RPMI-8226 living cells
purified tubulin = assay: Tubulin polymerization, cell-free assay; type: biochemical; conditions: tubulin 2.00 mg/mL; 1, 15 and 30 μM; 37° C., 100 min; vs vehicle
Description: The effect of the compounds on their ability to inhibit tubulin polymerization, was tested against a vehicle control by evaluating polymerization of purified tubulin in a cell-free assay where tubulin (2.00 mg/mL) was exposed to vehicle control or 1, 15 and 30 μM of the compounds (n=2). Polymerizations were tracked by an increase in fluorescence excitation wavelength is 340-360 nm and emission wavelength at 410-460 nm. Fluorescence was monitored at 37° C. every 30 sec for 100 min.

CCCCCOC(=O)c1[nH]c2c(c1C)C(=O)CC(c1ncco1)C2 (centres unmarked) [SMS077, pentyl 3-methyl-6-(oxazol-2-yl)-4-oxo-4,5,6,7-tetrahydro-1H-indole-2-carboxylate]
IC50 (RPMI-MR20 cells; RPMI-MR20, mitoxantrone resistant, read-out: IC50): 23 nM
IC50 ratio between resistant and non-resistant cells (RPMI-MR20 cells; RPMI-MR20 / RPMI 8226): 0.885
IC50 (MM1.S cells): 33 nM
IC50 ratio between resistant and non-resistant cells (N6/ADR cells; N6/ADR / NALM6): 0.895
IC50 (N6/ADR cells; N6/ADR, acute lymphoblastic leukemia, P-gp overexpression, read-out: IC50): 17 nM
IC50 (A2780 cells): 16 nM
disruption of pre-formed capillary-like tube network (HUVEC cells [1]): disrupted the integrity of the network in a dose dependent manner
IC50 (MES-SA cells): 128 nM
cytotoxic activity [2]: very potent cytotoxic activity against different cancer cell lines at low nanomolar levels
decrease of tumor volume as compared to vehicle at the same day (RPMI8226 myeloma cells; day 8, intraperitoneally): 0%
decrease of tumor volume as compared to vehicle at the same day (RPMI8226 myeloma cells; day 11, intraperitoneally): 40%
decrease of tumor volume as compared to vehicle at the same day (RPMI8226 myeloma cells; day 25, intraperitoneally): 52%
growth inhibition rate (tumor weight at end of experiment) (RPMI8226 myeloma cells; intraperitoneally): 54%
wound healing density (HUVEC migration) (HUVEC cells [3]): decreased wound healing density in a dose and time dependent manner
IC50 (RPMI-DOX40 cells; RPMI-DOX40, multiple myeloma, P-gp overexpression, read-out: IC50): 25 nM
IC50 ratio between resistant and non-resistant cells (RPMI-DOX40 cells; RPMI-DOX40 / RPMI 8226): 0.962
sensitivity of resistant subline vs parental cells (RPMI-DOX40 cells; RPMI-Dox40 vs RPMI8226 (RPMI-S)): no difference in their sensitivity
IC50 (MCF7-VP cells; Homo sapiens, MCF7-VP, breast adenocarcinoma, MRP overexpression): 560 nM
IC50 ratio between resistant and non-resistant cells (MCF7-VP cells; MCF7-VP / MCF7): 1.474
sensitivity of resistant subline vs parental cells (MCF7-VP cells; MCF7-VP vs MCF7): same sensitivity
binding to the colchicine binding site [4]: bound to the colchicine binding site
IC50 ratio between resistant and non-resistant cells (A2780ADR cells; A2780ADR / A2780): 1.938
resistance of cells to treatment (A2780ADR cells; A2780ADR ovary carcinoma cells): resistant to vincristine but not to SMS077 treatment
IC50 (A2780ADR cells; A2780 ADR, A2780ADR, ovarian carcinoma, resistant): 31 nM
water solubility [5]: better water solubility
IC50 (NCI-H69 VCR/R cells; Homo sapiens, NCI-H69 VCR/R, vincristine resistant): 48 nM
IC50 ratio between resistant and non-resistant cells (NCI-H69 VCR/R cells; NCI-H69 VCR/R / NCI-H69): 0.294
resistance of cells to treatment (NCI-H69 VCR/R cells; NCI-H69 VCR/R lung carcinoma cells): resistant to vincristine but not to SMS077 treatment
inhibition of tubule formation (HUVEC cells [6]; 4 hours): dose dependent inhibition of tubule formation
concentration at which tubule formation was significantly inhibited (HUVEC cells [6]; 4 hours of treatment): 75 nM
IC50 (NALM6 cells): 19 nM
IC50 (MCF7 cells): 380 nM
apoptosis and necrosis (annexin, propidium iodide staining) [7]: induced apoptosis and necrosis; also recorded: induces apoptosis and necrosis of treated cells
prevention of covalent binding of EBI to the colchicine binding site [8]: prevented the covalent binding of EBI to the colchicine binding site
rate of tubulin polymerization (purified tubulin): inhibited the rate of tubulin polymerization in a concentration-dependent manner
